Columns and labels:
[1] = test system: colony forming megakaryocyte; conditions: CFU-Mk ref 14; cited from earlier work
BRD3-D2 = BRD3-D2 (Homo sapiens, UniProt Q15059); assay: differential scanning fluorimetry; assay type: binding; conditions: DSF
BRD2-D2 = BRD2-D2 (Homo sapiens, UniProt P25440); assay: differential scanning fluorimetry; assay type: binding; conditions: DSF
BET bromodomains = assay: differential scanning fluorimetry; assay type: binding; conditions: DSF, majority of BET bromodomains
NLuc-BRD4-D1 = NLuc-BRD4-D1 (Homo sapiens, UniProt O60885); assay: live-cell NanoBRET competition assay in HEK293T; assay type: cell-based; conditions: 1.25 μM, 2 h at 37 °C
CXCL1 mRNA expression = conditions: LPS-induced TSECs, prior work ref 27; cited from earlier work
CCL2 mRNA expression = conditions: LPS-induced TSECs, prior work ref 27; cited from earlier work

Chain of BRD2-D2 (P25440 344-453 limits assumed): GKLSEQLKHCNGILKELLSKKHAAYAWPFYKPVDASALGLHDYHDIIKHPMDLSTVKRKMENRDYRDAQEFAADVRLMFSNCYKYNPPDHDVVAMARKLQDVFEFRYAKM
Chain of BRD3-D2 (Q15059 306-415 limits assumed): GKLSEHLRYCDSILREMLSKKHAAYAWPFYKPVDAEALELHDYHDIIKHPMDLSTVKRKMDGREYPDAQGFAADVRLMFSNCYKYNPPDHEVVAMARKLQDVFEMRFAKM

| SMILES | less toxic compared to ABBV-075 [1] [fold] | stabilization in melting temperature (BRD3-D2) [°C] | stabilization in melting temperature (BRD2-D2) [°C] | stabilization in melting temperature (BET bromodomains) [°C] | % inhibition of BRD4-D1 (NLuc-BRD4-D1) [%] | CXCL1 expression, in words (CXCL1 mRNA expression) | CCL2 expression, in words (CCL2 mRNA expression) |
| --- | --- | --- | --- | --- | --- | --- | --- |
| CCNC(=O)c1cc2c(-c3cc(C(C)(C)O)ccc3Oc3c(C)cc(F)cc3C)cn(C)c(=O)c2[nH]1 [ABBV-744] | 18 | – | – | – | – | – | – |
| COc1cc2c(cc1-c1c(C)noc1C)ncc1[nH]c(=O)n([C@H](C)c3ccccn3)c12 [IBET-151] | – | 3.96 ±0.09 | 3.70 ±0.12 | > 6 | 85 ±6 | significant efficacy in reducing the downstream expression of CXCL1 and CCL2 | decrease in CCL2 mRNA levels comparable to control levels |
| CC(=O)Nc1c(F)cc(C(=O)N[C@H]2CC[C@H](O)CC2)cc1O[C@@H](C)c1ccccc1 [iBET-BD2] | – | – | – | – | – | does not significantly reduce the expression of CXCL1 | – |

Reference: PMC12768458 (European journal of medicinal chemistry, 2025)
